Experimental data as given in patent publication US20250380697A1, “ISOXAZOLINE DERIVATIVE COMPOUND AND INSECTICIDAL COMPOSITION COMPRISING SAME” (KYUNG NONG CORPORATION, priority 2022, published 2025).

Assays:
Type in all cases: in vivo
[1] = tested on: Maruca vitrta; assay: Pesticidal activity against Maruca vitrta, artificial feed-dipping method; conditions: counted 24, 48, 72 hours, time not given
Method: Cabbage (Daiya) leaves were cut into pieces with a size of 1 cm×1 cm×1 cm, dipped in the pesticide composition where the compound of Synthesis Example 2 was diluted (the solvent=distilled water+acetone 50,000 mg/L+Triton X-100 100 mg/L) for 30 seconds, and then sufficiently shade-dried by placing them on aluminum foil. In this case, the artificial feed used was prepared by a process, in which (1) 13 g of agar powder and 625 mL of secondary distilled water were added into a 1 L beaker and boiled in the microwave for 10 minutes; (2) the agar boiled in the microwave was added into a blender and then 75 g of soybean powder, 20 g of red bean powder, 10 g of malt powder, and 175 mL of secondary distilled water were added thereto and mixed together; and (3) after the resulting mixture was cooled to 50° C., 5 g of a vitamin mixture, 4 g of ascorbic acid, 1 g of sorbic acid, 1 g of β-sitosterol, 10 g of glucose, 10 g of cellulose, 3 g of cholesterol, 1.5 g of methyl-p-hydroxybenzoate, 0.5 g of aureomycin, and 0.4 g of fumidil B were added thereto, mixed together, and then thoroughly cooled. Before placing the artificial feed pieces in a petri dish (¢90 mm×15 mm), parafilm (5.1 cm×5.1 cm) was placed on top of a distilled water-treated filter paper (Ø90 mm) to maintain humidity, and the artificial feed pieces were placed on top of the parafilm.
Then, the second to the third instar larvae of Maruca vitrta were repeatedly inoculated 3-5 times, 10 larvae per inoculation. In this case, the Maruca vitrta larvae used were those purchased from the Bio Utilization Institute (Andong, Korea). Then, the Maruca vitrta larvae were stored under 16 hours of light: 8 hours of dark, 25±1° C., and 50-60% relative humidity, and the number of live Maruca vitrta larvae was counted 24, 48, and 72 hours after inoculation. Thereafter, the larvae mortality rate was calculated in the same manner as in Test Example 1 above.

[2] = tested on: Helicoverpa armigera; assay: Pesticidal activity against Helicoverpa armigera, leaf-dipping method; conditions: counted 24, 48, 72 hours, time not given, read-out: mortality rate, Helicoverpa armigera
Method: Cabbage (Daiya) leaves were cut into pieces with a diameter of 5.8 cm, dipped in the pesticide composition where the compound of Synthesis Example 2 was diluted (the solvent=distilled water+acetone 50,000 mg/L+Triton X-100 100 mg/L) for 30 seconds, and sufficiently shade-dried. Then, the shade-dried cabbage leaves were placed in a petri dish (8.8 cm in diameter) covered with a filter paper and repeatedly inoculated 3-5 times with third instar larvae of Helicoverpa armigera, 10 larvae per inoculation. In this case, Helicoverpa armigera larvae used were those purchased from the Andong National University (Korea). Then, the Helicoverpa armigera larvae were stored under the conditions of 16 hours of light and 8 hours of dark, 25±1° C., and relative humidity of 50-60%, and the number of live Helicoverpa armigera larvae was counted 24, 48, and 72 hours after the inoculation. Thereafter, the larvae mortality rate was calculated in the same manner as in Test Example 1 above.

[3] = tested on: Resistant Plutella xylostella; assay: Resistance (tolerance) test against Plutella xylostella; conditions: leaf-dipping, chlorantraniliprole-selected resistant individuals, counted 24 and 48 hours, read-out: mortality rate, Resistant Plutella xylostella
Method: Resistance (tolerance) tests for pesticide compositions were performed on Plutella xylostella. In this case, the Plutella xylostellas used were resistant individuals obtained as follows: radish sprouts were germinated using a moth breeding acrylic cage (25 cm×30 cm×30 cm) to induce egg-laying in a breeding room in the Chungbuk National University (Korea), and the adult insects were collected using an InsectaVac Aspirator (BioQuip®) and induced to lay eggs again by applying a selection pressure using diamide-based chlorantraniliprole at 12.5 ppm once a month to breed for multiple generations.
Cabbage leaves were dipped in the pesticide composition where the compound was diluted (the solvent=distilled water+acetone 50,000 mg/L+Triton X-100 100 mg/L) for 30 seconds, and sufficiently shade-dried. Then, the shade-dried cabbage leaves were placed in a petri dish (8.8 cm in diameter) covered with a filter paper and repeatedly inoculated 3-5 times with third instar larvae of Plutella xylostella, which are resistant individuals, 10 larvae per inoculation. Then, the Plutella xylostella larvae were stored under the conditions of 16 hours of light and 8 hours of dark, 25±1° C., and relative humidity of 50-60%, and the number of live […] larvae was counted 24 and 48 hours after the inoculation. Thereafter, the larvae mortality rate was calculated in the same manner as in Test Example 1 above, and the results are shown in Table 2 below.

[4] = tested on: Lymantria dispar; assay: Pesticidal activity against Lymantria dispar, leaf-dipping method; conditions: maple leaf-dipping, counted 24, 48, 72 hours, time not given, read-out: mortality rate, Lymantria dispar
Method: Maple leaves were dipped in the pesticide composition where the compound of Synthesis Example 2 was diluted (the solvent=distilled water+acetone 50,000 mg/L+Triton X-100 100 mg/L) for 30 seconds, and sufficiently shade-dried by placing them on aluminum foil. Then, in order to maintain the humidity of the shade-dried maple leaves, they were placed on a petri dish (9.0 cm in diameter) covered with a filter paper (9.0 cm in diameter) treated with distilled water, and repeatedly inoculated 4 times of five early third instar larvae of Lymantria dispar. In particular, Lymantria dispar larvae used were collected in Jukjang-myeon, Buk-gu, Pohang-si, Gyeongsangbuk-do, Korea. Then, Lymantria dispar larvae were stored under 16 hours of light: 8 hours of dark, 25±1° C., and 50-60% relative humidity, and the number of Lymantria dispar larvae was counted 24, 48, and 72 hours after inoculation. Thereafter, the larvae mortality rate was calculated in the same manner as in Test Example 1 above.

[5] = tested on: Spodoptera exigua; assay: Pesticidal activity against Spodoptera exigua, leaf-dipping method; conditions: counted 24, 48, 72 hours, time not given, read-out: mortality rate, Spodoptera exigua
Method: Cabbage (Daiya) leaves were cut into pieces with a diameter of 5.8 cm, dipped in the pesticide composition where the compound of Synthesis Example 2 was diluted (the solvent=distilled water+acetone 50,000 mg/L+Triton X-100 100 mg/L) for 30 seconds, and sufficiently shade-dried. Then, the shade-dried cabbage leaves were placed in a petri dish (8.8 cm in diameter) covered with filter paper and repeatedly inoculated 3-5 times with the second to the third instar larvae of Spodoptera exigua, 10 larvae per inoculation. In particular, the Spodoptera exigua larvae used were those purchased from the Bio Utilization Institute (Andong, Korea). Then, the Spodoptera exigua larvae were stored under the conditions of 16 hours of light and 8 hours of dark, 25±1° C. and 50-60% relative humidity, and the number of live Spodoptera exigua larvae was counted 24, 48, and 72 hours after the inoculation. Thereafter, the larvae mortality rate was calculated in the same manner as in Test Example 1 above.

SMILES	mortality rate, Maruca vitrta ([1]; 0.1 ppm)	mortality rate, Maruca vitrta ([1]; 1 ppm)	mortality at 0.1 ppm [2]	mortality at 0.1 ppm [3]	mortality at 0.3 ppm [3]	mortality at 1 ppm [3]	mortality at 0.01 ppm [4]	mortality at 0.1 ppm [4]	mortality at 1 ppm [5]	mortality at 10 ppm [5]
Cc1cc(C2=NOC(c3cc(Cl)cc(C(F)(F)F)c3)(C(F)(F)F)C2)ccc1C(=O)NC(=O)C1CC1 (racemic) [Synthesis Example 2]	100%	100%	100%	93%	96%	100%	74%	100%	100%	100%
CON=CNC(=O)c1ccc(C2=NOC(c3cc(Cl)cc(Cl)c3)(C(F)(F)F)C2)cc1C (stereo not shown) [Comparative Example 1, fluxametamide]	23%	90%	78%	34%	38%	58%	5%	95%	100%	100%
CNC(=O)c1cc(Cl)cc(C)c1NC(=O)c1cc(Br)nn1-c1ncccc1Cl [Comparative Example 2, chlorantraniliprole]	33%	83%	31%	–	–	34%	0%	10%	46%	71%
